# Results taken from US4103011A, “Novel penicillin compounds and process for preparation thereof” (priority 1976, dated 1978).
# Counter-ions that a name gives are not always drawn. Like-named read-outs stand apart in the source and are kept apart here.
# Key:
# [1] = system: Staphylococcus aureus No. 50774; test: In vivo efficacy against systemic infection; design: species or system male mice (ddY); conditions: NO.50774, in Mus musculus, 336 h, sc, twice, about 5 minutes and 6 hours after infection, read-out: ED50 (median effective dose)
# Method: (§1) The contents in the vials (No. A and No. C) prepared in Example 17 were each dissolved in deionized water, and injections having various concentrations were prepared.
# (§2) Compounds A, B, F, G, H and M were dissolved in deionized water. Compounds C, D, E and J were dissolved in an aqueous solution of sodium carbonate (pH 8-9) to prepare injections of various concentrations.
# (§3) Each of the injections was administered to mice under the conditions described below, and the median effective doses (ED50) obtained are shown in Table II.
# (§4) Mice: male mice (ddY) weighting about 20g
# Staphylococcus aureus No. 50774;
# Intravenous infection with 50 to 100
# LD50 (about 5 × 10^8cells/mouse) of a
# bacterial suspension in saline.
# (§5) twice, about 5 minutes and 6 hours after
# Staphylococcus aureus No. 50774 14 days
# The numerals in the table show ED50 (mg/kg). ED50 values were
# (§6) calculated in accordance with the Behrens-Kaerber method [Arch. Exp. Path
# in vivo = conditions: mouse
# Escherichia coli P-5101 [2] = test: In vivo efficacy against systemic infection; design: species or system male mice (ddY); conditions: P5101, in Mus musculus, 168 h, twice, about 5 minutes and 6 hours after infection, read-out: ED50 (median effective dose)
# Method: as §1
# (§7) Compounds A, B, F, G, H and M were dissolved in deionized water.
# as §4
# (§8) Intraperitoneal infection with 50 to
# (§9) of a bacterial suspension in tryptosoy
# as §5, §6
# [3] = system: bacteria (systemic infection); test: In vivo efficacy against systemic infection, overall conclusions; design: species or system male mice (ddY); conditions: Table II
# Method: as §1, §2, §3
# [4] = system: Staphylococcus aureus 209P JC-1; test: In vitro antibacterial activity (MIC); assay type: cell-based; conditions: Staphylococcus aureus 209P JC-1; read-out: minimum inhibitory concentration (MIC)
# Text: (§10) In vitro antibacterial activity against 20 strains of bacteria
# (§11) The numerals in the table show minimum inhibitory concentrations (MIC)
# [5] = system: Streptococcus pyogenes 65A; test: In vitro antibacterial activity (MIC); assay type: cell-based; conditions: Streptococcus pyogenes 65A; read-out: minimum inhibitory concentration (MIC)
# Text: as §10, §11
# [6] = system: Streptococcus faecalis P-2473; test: In vitro antibacterial activity (MIC); assay type: cell-based; conditions: Enterococcus faecalis
# Text: as §10, §11
# [7] = system: Klebsiella pneumoniae No. 13; test: In vitro antibacterial activity (MIC); assay type: cell-based; conditions: Klebsiella pneumoniae No. 13; read-out: minimum inhibitory concentration (MIC)
# Text: as §10, §11
# [8] = system: Pseudomonas aeruginosa Tsuchijima; test: In vitro antibacterial activity (MIC); assay type: cell-based; conditions: Pseudomonas aeruginosa Tsuchijima; read-out: minimum inhibitory concentration (MIC)
# Text: as §10, §11
# [9] = system: Enterobacter cloacae P-2540; test: In vitro antibacterial activity (MIC); assay type: cell-based
# Text: as §10, §11
# Proteus mirabilis P-2381 = test: In vitro antibacterial activity (MIC); assay type: cell-based
# Text: as §10, §11
# [10] = system: Escherichia coli NIHJ JC-2; test: In vitro antibacterial activity (MIC); assay type: cell-based
# Text: as §10, §11
# [11] = system: Salmonella enteritidis No. 1891; test: In vitro antibacterial activity (MIC); assay type: cell-based; conditions: Salmonella enterica, read-out: minimum inhibitory concentration (MIC)
# Text: as §10, §11
# Proteus rettgeri P-2503 = test: In vitro antibacterial activity (MIC); assay type: cell-based; conditions: Providencia rettgeri, P2503; Proteus rettgeri P-2503; read-out: minimum inhibitory concentration (MIC)
# Text: as §10, §11
# [12] = system: Pseudomonas aeruginosa No.12; test: In vitro antibacterial activity (MIC); assay type: cell-based; conditions: Pseudomonas aeruginosa No.12; read-out: minimum inhibitory concentration (MIC)
# Text: as §10, §11
# [13] = system: Salmonella typhimurium S-9; test: In vitro antibacterial activity (MIC); assay type: cell-based; conditions: Salmonella enterica, read-out: minimum inhibitory concentration (MIC)
# Text: as §10, §11
# [14] = system: Shigella flexneri 4a P-330; test: In vitro antibacterial activity (MIC); assay type: cell-based; conditions: 4AP330, read-out: minimum inhibitory concentration (MIC)
# Text: as §10, §11
# Proteus morganii Kono = test: In vitro antibacterial activity (MIC); assay type: cell-based; conditions: Morganella morganii, read-out: minimum inhibitory concentration (MIC)
# Text: as §10, §11
# [15] = system: Serratia mercescens IFO 3736; test: In vitro antibacterial activity (MIC); assay type: cell-based
# Text: as §10, §11
# [16] = system: Corynebacterium pyogenes C-21; test: In vitro antibacterial activity (MIC); assay type: cell-based; conditions: Rhodococcus (subgen. Prescottella) equi, C21; Corynebacterium pyogenes C-21; read-out: minimum inhibitory concentration (MIC)
# Text: as §10, §11
# Escherichia coli P-140a = test: In vitro antibacterial activity (MIC); assay type: cell-based
# Text: as §10, §11
# Shigella flexneri 2a = test: In vitro antibacterial activity (MIC); assay type: cell-based; conditions: read-out: minimum inhibitory concentration (MIC)
# Text: as §10, §11
# [17] = system: Staphylococcus aureus No. 50774; test: In vitro antibacterial activity (MIC); assay type: cell-based
# Text: as §10, §11
# Escherichia coli P-5101 [18] = test: In vitro antibacterial activity (MIC); assay type: cell-based; conditions: Escherichia coli, P5101, read-out: minimum inhibitory concentration (MIC)
# Text: as §10, §11
# [19] = system: Pseudomonas aeruginosa No. 12; test: In vivo efficacy against systemic infection; design: species or system male mice (ddY); conditions: NO.12, in Mus musculus, twice, about 5 minutes and 6 hours after infection, read-out: ED50 (median effective dose)
# Method: as §1, §7, §4
# Pseudomonas aeruginosa No. 12;
# as §8, §9, §5
# Pseudomonas aeruginosa No. 12
# as §6
# 20 strains of bacteria = test: In vitro antibacterial activity, overall conclusions; assay type: cell-based
# Text: as §10
# [20] = P2473, read-out: minimum inhibitory concentration (MIC)
# [21] = P2540, Enterobacter cloacae P-2540, read-out: minimum inhibitory concentration (MIC)
# [22] = P2381, Proteus mirabilis P-2381, read-out: minimum inhibitory concentration (MIC)
# [23] = Salmonella enteritidis No. 1891
# [24] = Staphylococcus aureus No. 50774, read-out: minimum inhibitory concentration (MIC)
# [25] = Escherichia coli, NIHJJC2, read-out: minimum inhibitory concentration (MIC)
# [26] = Serratia, IFO3736, read-out: minimum inhibitory concentration (MIC)
Structure (SMILES),ED50 [1] [mg/kg],ED50 (Escherichia coli P-5101 [2]; iv) [mg/kg],ED50 (Escherichia coli P-5101 [2]; sc) [mg/kg],MIC [4] [µg/mL],MIC [5] [µg/mL],"MIC [6, 20] [µg/mL]",MIC [7] [µg/mL],MIC [8] [µg/mL],"MIC [9, 21] [µg/mL]",MIC (Proteus mirabilis P-2381; [22]) [µg/mL],"MIC [11, 23] [µg/mL]",MIC (Proteus rettgeri P-2503) [µg/mL],MIC [12] [µg/mL],MIC ([13]; Salmonella typhimurium S-9) [µg/mL],MIC [14] [µg/mL],MIC (Proteus morganii Kono; Proteus morganii Kono) [µg/mL],MIC [16] [µg/mL],MIC (Shigella flexneri 2a) [µg/mL],MIC (Escherichia coli P-5101 [18]) [µg/mL],ED50 ([19]; sc) [mg/kg],other results
"CN1CCN(c2ncc3c(=O)c(C(=O)N[C@@H](C(=O)N[C@@H]4C(=O)N5[C@@H]4SC(C)(C)[C@@H]5C(=O)O)c4ccc(O)cc4)c[nH]c3n2)CC1 [Compound A, D-α-[5,8-Dihydro-2-(4-methyl-1-piperazinyl)-5-oxopyrido[2,3-d]pyrimidine-6-carboxamido]-p-hydroxybenzylpenicillin sodium salt]",3.7,0.7,1,1.56,< 0.1,6.25,6.25,0.39,3.13,3.13,0.2,6.25,1.56,0.2,0.78,3.13,0.78,0.78,0.39,3.6,"LD50 at 168 h (in vivo; iv): 1120 mg/kg; selectivity ratio (in vivo; iv): 432; LD50 at 168 h (in vivo; sc): 1500 mg/kg; selectivity ratio (in vivo; sc): 417; antibacterial activity in vivo (in words) [3]: almost comparable; MIC ([10]; NIHJJC2, Escherichia coli NIHJ JC-2, read-out: minimum inhibitory concentration (MIC)): 0.78 µg/mL; MIC ([15]; IFO3736, Serratia mercescens IFO 3736, read-out: minimum inhibitory concentration (MIC)): 3.13 µg/mL; minimum inhibitory concentration (MIC) (Escherichia coli P-140a): 6.25 µg/mL; MIC [17, 24]: 3.13 µg/mL; ED50 ([19]; iv): 2.6 mg/kg"
"CC1(C)S[C@@H]2[C@H](NC(=O)[C@H](N)c3ccc(O)cc3)C(=O)N2[C@H]1C(=O)O [Compound M, D-α-Amino-p-hydroxybenzylpenicillin sodium salt]",0.34,3.2,3.4,0.1,0.025,,200,200,> 200,1.56,0.39,50,> 200,0.78,25,200,0.39,6.25,6.25,> 200,"antibacterial activity (in words) (20 strains of bacteria; Ampicillin-resistant strains): does not exhibit antibacterial activity; antibacterial activity (in words) (20 strains of bacteria; E. coli P-140a, Klebsiella pneumonia, Enterobacter cloacae, Pseudomonas aeruginosa, Serratia marcescens): substantially ineffective; antibacterial activity (in words) (20 strains of bacteria; bacteria of the genus Pseudomonas): substantially ineffective; MIC ([6]; P2473, Streptococcus faecalis P-2473, read-out: minimum inhibitory concentration (MIC)): 0.78 µg/mL; MIC [10, 25]: 6.25 µg/mL; MIC [15, 26]: 50 µg/mL; minimum inhibitory concentration (MIC) (Escherichia coli P-140a): > 200 µg/mL; MIC [17, 24]: 0.1 µg/mL"
"CCn1cc(C(=O)O)c(=O)c2cnc(N3CCNCC3)nc21 [Compound J, 5,8-Dihydro-8-ethyl-2-(1-piperazinyl)-5-oxopyrido[2,3-d]pyrimidine-6-carboxylic acid]",> 50,4.6,6.3,12.5,> 100,> 200,6.25,12.5,,,,6.25,25,,1.56,,25,3.13,3.13,37.7,"antibacterial activity (in words) (20 strains of bacteria; against Gram-positive bacteria): inferior antibacterial activity against Gram-positive bacteria; antibacterial activity (in words) (20 strains of bacteria; against Gram-positive bacteria, listed as Pipemidic acid): does not show any marked antibacterial activity against Gram-positive bacteria; MIC ([9]; Enterobacter cloacae, P2540, read-out: minimum inhibitory concentration (MIC)): 1.56 µg/mL; MIC (Proteus mirabilis P-2381; Proteus mirabilis, P2381, read-out: minimum inhibitory concentration (MIC)): 3.13 µg/mL; MIC [10, 25]: 1.56 µg/mL; MIC ([11]; ENTERITIDIS): 1.56 µg/mL; MIC ([13]; TYPHIMURIUM): 3.13 µg/mL; MIC (Proteus morganii Kono): 3.13 µg/mL; MIC [15, 26]: 6.25 µg/mL; MIC (Escherichia coli P-140a; Escherichia coli, read-out: minimum inhibitory concentration (MIC)): 3.13 µg/mL; MIC ([17]; Staphylococcus aureus, NO.50774, read-out: minimum inhibitory concentration (MIC)): 25 µg/mL; ED50 ([19]; iv): 42.7 mg/kg"
